Read-outs that look alike come from different tables or passages of the source.
Experiments:
[1] = test system: MIP-2 and IFN-β in LPS treated macrophage cells; assay: MIP-2 and IFN-β in LPS treated macrophage cells; assay type: cell-based
[2] = test system: P2Y6 receptor on THP-1 cells; assay: MSU-induced P2Y6 receptor trafficking; assay type: cell-based, human
Experimental: THP-1 cells were divided into two groups: 1) MSU treated group and 2) MSU/PLAG treated group. For MSU treated group, THP-1 cells were stimulated with monosodium urate (MSU) crystal (400 μg/ml) for 0, 10, 20, 30, 40, 50, 60 minutes. For MSU/PLAG treated group, THP-1 cells were pre-incubated with PLAG (100 μg/ml) for an hour and then stimulated with monosodium urate (MSU) crystal (400 μg/ml) for 0, 10, 20, 30, 40, 50, 60 minutes. Then, cells were harvested. (A) To detect for the P2Y6 receptor on the membrane surface, cells were fixed with 4% paraformaldehyde (Sigma-Aldrich) and incubated with PBS containing 1% BSA for blocking. They were labeled with the rabbit anti-P2Y6 receptor antibody (1:200, APR-011, Alomone Labs, Jerusalem, Israel) for 1 h. The detection Ab was used with Alexa Flour 488 goat anti-rabbit IgG (Invitrogen). (B) To detect lysosomal activity, THP-1 cells were stained with Texas red conjugated-LYSO-ID® Lysosomal Detection Kit (Enzo Life Sciences, Inc.). Finally, cells were washed with 1% FBS/PBS and mounted with DAPI-containing fluorescence microscopy mounting medium (Invitrogen). Confocal samples were analyzed with a laser scanning confocal microscope (Carl Zeiss, Oberkochen, Germany). For flow cytometric analysis, cells were washed and analyzed with a FACSVerse flow cytometer (BD Biosciences). FlowJo software (Tree Star, OR, USA) was used data processing.
The specific siRNA of CD36 (sc-29995) and control siRNA (sc-37007) were purchased from Santa Cruz Biotechnology. Cells were transfected with 50 nM of either the targeting or control siRNA using HiPerFect Transfection Reagent (Qiagen, Hilden, Germany) for 24 h. The knockdown efficiency of siRNAs was confirmed by Western blot analysis.
THP-1 cells were pre-incubated with PLAG (100 μg/ml) for 1 hour and then stimulated with MSU crystal (400 μg/ml). After 15, 30, 60 min, cells were harvested. […] For flow cytometric analysis, cells were washed with 1% FBS/PBS and analyzed with a FACSVerse flow cytometer (BD Biosciences). […]

[3] = test system: NET formation of neutrophil, bone marrow-derived cells; assay: NETosis of PAK-introduced bone marrow-derived cells; assay type: cell-based; conditions: PAK/PLAG vs PAK
Experimental: 2 hours after PAK infection, bone marrow-derived cells were harvested and detected extracellular DNA-elastase complex by using ELISA and visualized by using confocal microscopy (×400) or scanning electron microscope (SEM) (×8000). […] cells were washed with PBS and mounted in DAPI-containing fluorescence microscopy mounting medium (Invitrogen). Samples were analyzed with a laser scanning confocal microscope (Carl Zeiss, Oberkochen, Germany).

[4] = test system: apoptotic neutrophils (differentiated HL60) co-cultured with macrophage (differentiated THP-1); assay: Efferocytosis index and apoptotic cell clearance; assay type: cell-based, human
Experimental: THP-1 and HL60 cells were obtained from the American Type Culture Collection (ATCC, Rockville, Md., USA). THP-1 cells were grown in RPMI1640 medium (WELGENE, Seoul, Korea) containing 10% fetal bovine serum (HyClone, Waltham, Mass., USA), 1% antibiotics (100 mg/l streptomycin, 100 U/ml penicillin), and 0.4% 2-Mercaptoethanol (Sigma Aldrich, St. Louis, Mo., USA). HL60 cells were grown in RPMI1640 medium containing 20% fetal bovine serum and 1% antibiotics (100 mg/l streptomycin, 100 U/ml penicillin). Cells were grown at 37° C. in a 5% CO2 atmosphere. To differentiate THP-1 cells into macrophage-like cells, cells were grown in medium with 1% Phorbol 12-myristate 13-acetate (PMA) (Sigma Aldrich) for 72 h. To differentiate […] cells into neutrophil-like cells, cells were grown in medium with 10% DMSO (Sigma Aldrich) for 5 days
Differentiation HL60 was stained with […] CellTracker Red CMTPX (Molecular probes, Eugene, OG, USA) for 30 minutes in PBS and lead to apoptosis by PMA treatment for 24 hours. […] Efferocytotic index was analyzed by FACS (BD bioscience, Franklin Lakes, N.J., USA). […]
Differentiation HL60 was stained with […] CellTracker Red CMTPX (Molecular probes, Eugene, OG, USA) for 30 minutes in PBS and lead to apoptosis by PMA treatment. […] Fluorescence overlay videos were recorded using ZEN program (Carl Zeiss, Thornwood, NY, USA)

[5] = test system: chemoradiation-induced oral mucositis
[6] = Day 9, ChemoRT + PLAG 250 mg/kg

With `CCCCC/C=C\C/C=C\CCCCCCCC(=O)OC(COC(C)=O)COC(=O)CCCCCCCCCCCCCCC` (racemic) [PLAG, 1-palmitoyl-2-linoleoyl-3-acetylglycerol] the “modulation of chemokine MIP-2 in silenced cell” value ([1]; LPL or GPIHBP1 silenced cell) was “not capable of modulating”, the “chemokine MIP-2 and cytokine IFN-β” value ([1]; LPS treated macrophage cells) was “effectively down-regulates” and the P2Y6 endocytosis initiates ([2]; MSU/PLAG treated cells) was “about 10 minutes”. The “P2Y6 returned to the surface” value ([2]; MSU/PLAG treated cells) was “about 30 minutes”, the “promotion of P2Y6 receptor endocytosis (flow cytometry)” value ([2]; control and CD36 silenced cells) was “still observed” and the “NET formation of neutrophil” value [3] was “accelerated”. The “clearance of apoptotic neutrophils by macrophage phagocytosis observed within” value ([4]; PLAG 100 μg/mL, confocal) was at most 30 min, the “efferocytosis of apoptotic neutrophils (efferocytotic index)” value ([4]; dose-dependently) was “promotes” and the “body weight Day 9” value ([5]; ChemoRT + PLAG 100 mg/kg) was 23.98 ± 2.80 g. For the same compound, the “oral mucosa epithelial thickness” value ([5]; ChemoRT + PLAG 100 mg/kg) was 58.06±24.97 μm, the ulceration area percentage ([5]; ChemoRT + PLAG 100 mg/kg) was 29.32±5.40% and the “CXCL2 mRNA expression in tongues (relative band intensity)” value ([5]; ChemoRT + PLAG 250 mg/kg) was 0.23±0.48 AU. For the same compound, the “IL-6 in tongue tissue extracts” value ([5]; ChemoRT + PLAG 250 mg/kg) was 8.13 ± 1.19 pg/mg, the “IL-6 mRNA expression in tongues (relative band intensity)” value ([5]; ChemoRT + PLAG 250 mg/kg) was 1.34±1.06 AU and the “MIP-2 in tongue tissue extracts” value ([5]; ChemoRT + PLAG 250 mg/kg) was 2.69 ± 0.38 pg/mg. For the same compound, the “body weight Day 9” value ([5]; ChemoRT + PLAG 250 mg/kg) was 26.46 ± 1.68 g, the “oral mucosa epithelial thickness” value ([5]; ChemoRT + PLAG 250 mg/kg) was 85.81±12.24 μm and the ulceration area percentage ([5]; ChemoRT + PLAG 250 mg/kg) was 1.45±2.36%. For the same compound, the “P-MLKL relative band intensity in tongue lysates” value ([5]; ChemoRT+PLAG) was 3.67±2.56 AU, the “P-RIPK1 relative band intensity in tongue lysates” value ([5]; ChemoRT+PLAG) was 0.61±0.45 AU and the “P-RIPK3 relative band intensity in tongue lysates” value ([5]; ChemoRT+PLAG) was 1.27±0.83 AU. For the same compound, the “body weight Day 0” value ([5]; ChemoRT+PLAG) was 25.78 ± 1.04 g, the “neutrophil infiltration in the tongues (IHC NIMP-R14)” value ([5]; ChemoRT+PLAG) was “not observed” and the “serum IL-6” value [5, 6] was 205.75 ± 30.41 pg/mL. For the same compound, the “serum MIP-2” value [5, 6] was 4.42 ± 4.04 pg/mL, the “HMGB1 localization in tongue (IHC)” value ([5]; PLAG-treated mice) was “remained in the nucleus” and the “body weight Day 9” value ([5]; mouse, in vivo) was 25.66 ± 0.70 g.

Source: US20220339135A1, “COMPOSITIONS AND METHODS FOR MODULATING AN INFLAMMATORY RESPONSE” (Enzychem Lifesciences Corporation, priority 2019, published 2022)
